Experimental data published in patent US8088791B2, “Antibacterial agents” (Biots Scientific Management Pty Ltd, priority 2006, dated 2012).
Converted amounts (≈) assume the structure as drawn.

System: Bacillus subtilis 168CA
Test: Minimum Inhibitory Concentration (MIC) testing, broth microdilution, Bacillus subtilis
Type: cell-based
Settings: Bacillus subtilis 168CA; read-out: Bacillus subtilis MICs Activity
Procedure: Compounds of this invention were tested for antimicrobial activity by susceptibility testing in liquid media. MICs for compounds against each strain were determined by a broth microdilution method according to the National Committee for Clinical Laboratory Standards (NCCLS) guidelines. (NCCLS. 2000. Methods for dilution antimicrobial susceptibility tests for bacteria that grow aerobically—fifth edition. Approved standard M7-A5. NCCLS, Wayne, Pa.)
Briefly, test compounds are prepared in 100 μl of 1.6% DMSO solution in multiwell plates. Several bacterial colonies from a freshly streaked plate are transferred to an appropriate rich broth, such as Mueller Hinton. The cell suspension is adjusted to an optical density of 0.09 and further diluted 1:100 with warm 2× broth. This cell suspension is dispensed into the wells containing compound solution so that the final volume is 200 μl. The plates are incubated overnight (16-20 hours) at 37° C. and turbidity is scored by eye and quantified spectrophotometrically. The MIC is defined as the lowest concentration inhibiting visible growth.
Activities were scored as ‘A’ if the MIC was ≦8 micrograms/ml, ‘B’ if the MIC was 16 to 64 micrograms/ml and ‘C’ if the MIC was greater than 64 micrograms/ml.

| SMILES | MIC [µg/mL] |
| --- | --- |
| CCCCOc1cccc(C(N)=O)c1 [Example 7, 3-Butoxybenzenecarboxamide] | > 64 |
| C=CCOc1cccc(C(N)=O)c1 [Example 6, 3-(Allyloxy)benzenecarboxamide] | > 64 |
| COCCOc1cccc(C(N)=O)c1 [Example 9, 3-(2-Methoxyethoxy)benzenecarboxamide] | > 64 |
| NC(=O)c1c(F)ccc(OCc2ccc3cc(Cl)ccc3n2)c1F [Example 110, 3-(6-Chloro-quinolin-2-ylmethoxy)-2,6-difluoro-benzamide] | < 8 |
| NC(=O)c1cccc(OCCCCCc2ccccc2)c1 [Example 21, 3-[(5-Phenylpentyl)oxy]benzenecarboxamide] | 16 to 64 (≈ 56.5 to 226 µM) |
| Cc1cccc2nc(COc3ccc(F)c(C(N)=O)c3F)ccc12 [Example 96, 2,6-Difluoro-3-(5-methyl-quinolin-2-ylmethoxy)-benzamide] | 16 to 64 (≈ 48.7 to 195 µM) |
| NC(=O)c1cccc(OCC2CC2)c1 [Example 4, 3-(Cyclopropylmethoxy)benzenecarboxamide] | > 64 |
| NC(=O)c1cccc(OCCCCc2ccccc2)c1 [Example 20, 3-(4-Phenylbutoxy)benzenecarboxamide] | < 8 |
| NC(=O)c1c(F)ccc(OCc2ccc3cccc(Cl)c3n2)c1F [Example 112, 3-(8-Chloro-quinolin-2-ylmethoxy)-2,6-difluoro-benzamide] | < 8 |
| NC(=O)c1cccc(OCCc2ccc(F)cc2)c1 [Example 34, 3-[(4-Fluorophenethyl)oxy]benzenecarboxamide] | 16 to 64 (≈ 61.7 to 247 µM) |
| CCOC(=O)CCCOc1cccc(C(N)=O)c1 [Example 25, Ethyl 4-[3-(aminocarbonyl)phenoxy]butanoate] | > 64 |
| CC(C)CCCOc1cccc(C(N)=O)c1 [Example 14, 3-[(4-Methylpentyl)oxy]benzenecarboxamide] | 16 to 64 (≈ 72.3 to 289 µM) |
| CC(C)CCCCOc1cccc(C(N)=O)c1 [Example 22, 3-[(5-Methylhexyl)oxy]benzenecarboxamide] | 16 to 64 (≈ 68 to 272 µM) |
| CC(C)CCOc1cccc(C(N)=O)c1 [Example 13, 3-(Isopentyloxy)benzenecarboxamide] | 16 to 64 (≈ 77.2 to 309 µM) |
| C=C(C)COc1cccc(C(N)=O)c1 [Example 11, 3-[(2-Methyl-2-propenyl)oxy]benzenecarboxamide] | > 64 |
| CCCCCCC#CCOc1cccc(C(N)=O)c1 [Example 50, 3-(2-Nonynyloxy)benzenecarboxamide] | < 8 |
| NC(=O)c1c(F)ccc(OCc2ccc3ccccc3c2)c1F [Example 113, 2,6-Difluoro-3-(naphthalen-2-ylmethoxy)-benzamide] | < 8 |
| COC(=O)CCCCCCCCCOc1cccc(C(N)=O)c1 [Example 38, Methyl 10-[3-(aminocarbonyl)phenoxy]decanoate] | < 8 |
| CCCCC#CCCCCOc1cccc(C(N)=O)c1 [Example 48, 3-(5-Decynyloxy)benzenecarboxamide] | < 8 |
| CCOC(=O)COc1cccc(C(N)=O)c1 [Example 33, Ethyl 2-[3-(aminocarbonyl)phenoxy]acetate] | > 64 |
| NC(=O)c1cccc(OCc2ccc3ccccc3n2)c1 [Example 23, 3-(2-Quinolinylmethoxy)benzenecarboxamide] | 16 to 64 (≈ 57.5 to 230 µM) |
| NC(=O)c1cccc(OCCCCC2CCCCC2)c1 [Example 44, 3-(4-Cyclohexylbutoxy)benzenecarboxamide] | < 8 |
| NC(=O)c1cccc(OCCCCOc2ccccc2)c1 [Example 10, 3-(4-Phenoxybutoxy)benzenecarboxamide] | < 8 |
| CCCOCCOc1cccc(C(N)=O)c1 [Example 16, 3-(2-Propoxyethoxy)benzenecarboxamide] | > 64 |
| CCCOc1cccc(C(N)=O)c1 [Example 2, 3-Propoxybenzenecarboxamide] | > 64 |
| Cc1cccc(-c2ccc3sc(COc4ccc(F)c(C(N)=O)c4F)nc3c2)c1 [Example 142, 2,6-Difluoro-3-(5-m-tolyl-benzothiazol-2-ylmethoxy)-benzamide] | < 8 |

More lines, now with the values ahead:

| MIC [µg/mL] | SMILES |
| --- | --- |
| 16 to 64 (≈ 48.3 to 193 µM) | NC(=O)c1c(F)ccc(OCc2nnc(-c3ccccc3)o2)c1F [Example 238, 2,6-Difluoro-3-[(5-phenyl-1,3,4-oxadiazol-2-yl)methoxy]benzenecarboxamide] |
| 16 to 64 (≈ 40.9 to 164 µM) | COc1ccc(-c2noc(COc3ccc(F)c(C(N)=O)c3F)n2)c(OC)c1 [Example 261, 3-[3-(2,4-Dimethoxyphenyl)-1,2,4-oxadiazol-5-yl]methoxy-2,6-difluorobenzenecarboxamide] |
| > 64 | NC(=O)c1c(F)ccc(OCc2cn3ccccc3n2)c1F [Example 203, 2,6-Difluoro-3-(imidazo[1,2-a]pyridin-2-ylmethoxy)benzenecarboxamide] |
| < 8 | COc1cc(-c2noc(COc3ccc(F)c(C(N)=O)c3F)n2)ccc1OC(F)F [Example 328, 3-[3-(4-Difluoromethoxy-3-methoxy-phenyl)-[1,2,4]oxadiazol-5-ylmethoxy]-2,6-difluoro-benzamide] |
| 16 to 64 (≈ 50.9 to 204 µM) | NC(=O)c1c(F)ccc(OCc2ccc3cccnc3c2)c1F [Example 330, 2,6-Difluoro-3-(quinolin-7-ylmethoxy)-benzamide] |
| < 8 | NC(=O)c1c(F)ccc(OCc2nc(-c3cccc([N+](=O)[O-])c3)no2)c1F [Example 259, 2,6-Difluoro-3-[3-(3-nitrophenyl)-1,2,4-oxadiazol-5-yl]methoxybenzenecarboxamide] |
| 16 to 64 (≈ 46.1 to 184 µM) | NC(=O)c1c(F)ccc(OCc2nc(-c3ccccc3O)no2)c1F [Example 253, 2,6-Difluoro-3-[3-(2-hydroxyphenyl)-1,2,4-oxadiazol-5-yl]methoxybenzenecarboxamide] |
| < 8 | NC(=O)c1c(F)ccc(OCc2cccc(OCc3ccccc3)c2)c1F [Example 154, 3-(3-Benzyloxy-benzyloxy)-2,6-difluoro-benzamide] |
| < 8 | NC(=O)c1c(F)ccc(OCc2nc(-c3ccc(Cl)c([N+](=O)[O-])c3)no2)c1F [Example 329, 3-[3-(4-Chloro-3-nitro-phenyl)-[1,2,4]oxadiazol-5-ylmethoxy]-2,6-difluoro-benzamide] |
| 16 to 64 (≈ 37.2 to 149 µM) | NC(=O)c1c(F)ccc(OCc2nc(COc3c(Cl)cccc3Cl)no2)c1F [Example 264, 3-(3-[(2,6-Dichlorophenoxy)methyl]-1,2,4-oxadiazol-5-ylmethoxy)-2,6-difluorobenzenecarboxamide] |
| < 8 | Cc1sc(-c2ccccc2)nc1CCCOc1ccc(F)c(C(N)=O)c1F [Example 160, 2,6-Difluoro-3-[3-(5-methyl-2-phenyl-thiazol-4-yl)-propoxy]-benzamide] |
| < 8 | NC(=O)c1c(F)ccc(OCc2nc(-c3ccccc3Cl)no2)c1F [Example 254, 3-[3-(2-Chlorophenyl)-1,2,4-oxadiazol-5-yl]methoxy-2,6-difluorobenzenecarboxamide] |
| 16 to 64 (≈ 51.9 to 208 µM) | NC(=O)c1c(F)ccc(OCc2cccc([N+](=O)[O-])c2)c1F [Example 332, 2,6-Difluoro-3-(3-nitro-benzyloxy)-benzamide] |
| < 8 | NC(=O)c1c(F)ccc(OCc2nnc(-c3ccc(Cl)cc3)s2)c1F [Example 234, 3-[5-(4-Chlorophenyl)-1,3,4-thiadiazol-2-yl]methoxy-2,6-difluorobenzenecarboxamide] |
| < 8 | NC(=O)c1c(F)ccc(OCc2nc(-c3cccc(Cl)c3)no2)c1F [Example 255, 3-[3-(3-Chlorophenyl)-1,2,4-oxadiazol-5-yl]methoxy-2,6-difluorobenzenecarboxamide] |
